According to the supplement of paper PMC11451515:

Tested on: SEM cells
Test: cell viability relative to DMSO control; higher = less cytotoxic
Conditions: 48 h
Procedure, shortened: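 Leukemia cells (NOMO1 or SEM, 500 cells/well; P12-Ichikawa, 1000 cells/well) were seeded in 5 μl in 1536-well plates after at least four passages of adaptation to each medium. They received library compounds in DMSO by pin dosing, 11 threefold points from 47 μM to 0.79 nM. Luminescence with CellTiter-Glo One was read after 48 h at 37°C. Viability is stated per plate relative to DMSO wells, with cell-free wells as background.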

[1] = HPLM + 10% dialyzed FBS, 0.000781 µM
[2] = HPLM + 10% dialyzed FBS, 0.00234 µM
[3] = HPLM + 10% dialyzed FBS, 0.00702 µM
[4] = HPLM + 10% dialyzed FBS, 0.0211 µM
[5] = HPLM + 10% dialyzed FBS, 0.0632 µM
[6] = HPLM + 10% dialyzed FBS, 0.19 µM
[7] = HPLM + 10% dialyzed FBS, 0.569 µM
[8] = HPLM + 10% dialyzed FBS, 1.71 µM
[9] = HPLM + 10% dialyzed FBS, 5.12 µM
[10] = HPLM + 10% dialyzed FBS, 15.4 µM
[11] = HPLM + 10% dialyzed FBS, 46.1 µM
[12] = RPMI 5 mM glucose + 10% FBS, 0.000781 µM
[13] = RPMI 5 mM glucose + 10% FBS, 0.00234 µM
[14] = RPMI 5 mM glucose + 10% FBS, 0.00702 µM
[15] = RPMI 5 mM glucose + 10% FBS, 0.0211 µM
[16] = RPMI 5 mM glucose + 10% FBS, 0.0632 µM
[17] = RPMI 5 mM glucose + 10% FBS, 0.19 µM
[18] = RPMI 5 mM glucose + 10% FBS, 0.569 µM
[19] = RPMI 5 mM glucose + 10% FBS, 1.71 µM
[20] = RPMI 5 mM glucose + 10% FBS, 5.12 µM
[21] = RPMI 5 mM glucose + 10% FBS, 15.4 µM
[22] = RPMI 5 mM glucose + 10% FBS, 46.1 µM
[23] = RPMI 5 mM glucose + 10% dialyzed FBS, 0.000781 µM
[24] = RPMI 5 mM glucose + 10% dialyzed FBS, 0.00234 µM
[25] = RPMI 5 mM glucose + 10% dialyzed FBS, 0.00702 µM
[26] = RPMI 5 mM glucose + 10% dialyzed FBS, 0.0211 µM
[27] = RPMI 5 mM glucose + 10% dialyzed FBS, 0.0632 µM
[28] = RPMI 5 mM glucose + 10% dialyzed FBS, 0.19 µM
[29] = RPMI 5 mM glucose + 10% dialyzed FBS, 0.569 µM
[30] = RPMI 5 mM glucose + 10% dialyzed FBS, 1.71 µM
[31] = RPMI 5 mM glucose + 10% dialyzed FBS, 5.12 µM
[32] = RPMI 5 mM glucose + 10% dialyzed FBS, 15.4 µM
[33] = RPMI 5 mM glucose + 10% dialyzed FBS, 46.1 µM

Structure (SMILES)	cell viability [1]	cell viability [2]	cell viability [3]	cell viability [4]	cell viability [5]	cell viability [6]	cell viability [7]	cell viability [8]	cell viability [9]	cell viability [10]	cell viability [11]	cell viability [12]	cell viability [13]	cell viability [14]	cell viability [15]	cell viability [16]	cell viability [17]	cell viability [18]	cell viability [19]	cell viability [20]	cell viability [21]	cell viability [22]	cell viability [23]	cell viability [24]	cell viability [25]	cell viability [26]	cell viability [27]	cell viability [28]	cell viability [29]	cell viability [30]	cell viability [31]	cell viability [32]	cell viability [33]
C[C@@]12C[C@@]3(O)O[C@@H](O1)[C@]1(COC(=O)c4ccccc4)[C@H]3C[C@@]12O[C@@H]1O[C@H](CO)[C@@H](O)[C@H](O)[C@H]1O	96%	91.2%	109%	117%	98.5%	103%	108%	96.7%	107%	113%	107%	105%	87%	101%	100%	124%	92.6%	116%	138%	111%	105%	98.9%	99%	89.8%	118%	122%	121%	101%	119%	115%	122%	107%	122%
CCOC(=O)\C1=C(/C)N\C2=C(C1C3=CC=C(C=C3)C4=CC=CC=C4)\C(=O)CC(C)(C)C2 (centres undefined)	107%	104%	101%	105%	104%	113%	103%	102%	105%	92%	60.4%	101%	122%	134%	114%	144%	108%	110%	112%	108%	96.1%	58.4%	89.4%	116%	111%	98.3%	104%	89.4%	97.5%	103%	89.8%	81.1%	57.6%
O=C(NC[C@H](O)CO)c1ccncc1Nc1ccc(I)cc1F	94.4%	104%	38.1%	118%	106%	105%	88.3%	83.4%	85.7%	85.4%	64.4%	94.4%	97.6%	19.3%	101%	108%	89.2%	85.7%	80.1%	68.3%	64.6%	43.6%	97.2%	108%	35.1%	99%	99.8%	85.3%	84.2%	70.3%	72.7%	56.3%	54.7%
N[C@H](CSC(c1ccccc1)(c1ccccc1)c1ccccc1)C(=O)O	105%	99.3%	113%	99.4%	117%	97%	102%	94%	69.4%	54.9%	14.7%	44.8%	74.6%	75.2%	68.2%	71.1%	60.9%	69.8%	52.3%	47.2%	18.7%	2.79%	100%	105%	122%	86.5%	106%	95.6%	94%	82.1%	60.8%	40.1%	12.8%
Nc1ncnc2c1c(-c1cnc3[nH]ccc3c1)nn2C1CCCC1	111%	113%	127%	122%	113%	105%	95.2%	69.6%	51.1%	36.2%	11%	81.9%	76.3%	85.1%	95.4%	94.8%	73.6%	68.8%	49.2%	33.8%	24.7%	6.03%	123%	120%	125%	114%	129%	112%	99.6%	73.8%	59.5%	42.6%	6.97%
CN1CCCN=C1/C=C/c1cccs1.O=C(O)c1cc2ccccc2c(Cc2c(O)c(C(=O)O)cc3ccccc23)c1O	113%	126%	114%	128%	120%	135%	118%	119%	113%	115%	91.9%	113%	118%	128%	119%	105%	128%	129%	105%	105%	92.9%	15%											
C[N]1C=C(C2=C1C=CC=C2)\C3=C(\C(=O)NC3=O)C4=C5CC(CN)CC[N]5C6=C4C=CC=C6 (centres undefined)	88.4%	97.6%	92.2%	107%	75.4%	102%	108%	99.5%	86.3%	19.3%	3.63%	100%	108%	98.1%	107%	66.6%	111%	95%	86%	79.1%	31.8%	3.05%	89.9%	108%	105%	107%	86.1%	95.8%	111%	107%	88.4%	38.6%	7.7%
COc1ccc(-c2ccc3c(N4CCOC[C@@H]4C)nc(N4CCOC[C@@H]4C)nc3n2)cc1CO	101%	58.2%	96.6%	92.1%	87.3%	62.2%	60.3%	53.4%	50.9%	33%	4.42%	110%	52%	118%	101%	89.7%	51%	67.5%	55.8%	36.5%	12.6%	4.05%	105%	53%	110%	88.9%	82.2%	64.7%	67.4%	56.2%	45.7%	34.3%	3.94%
CC/1=C(/N2[C@H](SC1)[C@H](NC(=O)[C@H](N)\C3=C\C\C=C/C3)C2=O)C(O)=O	79.3%	87.2%	94%	86.5%	82.9%	97.1%	95.8%	91.2%	93.5%	111%	102%	95.8%	106%	120%	98.1%	115%	120%	111%	118%	107%	113%	120%	88.8%	112%	98%	87.4%	109%	117%	114%	107%	124%	114%	113%
O=C(Nc1ccccc1-c1cn2c(CN3CCNCC3)csc2n1)c1cnc2ccccc2n1	61.2%	97.4%	109%	98.1%	81.4%	81.1%	90.5%	67.5%	72.5%	48.3%	1.98%	71.4%	107%	95.2%	103%	76%	84.4%	94.8%	67.4%	54.3%	59.2%	2.64%	56.4%	93.2%	84.5%	86.5%	65.4%	80.1%	79.5%	52.6%	53.9%	37.4%	2.76%
CC1(C)O[C@@H]2C[C@H]3[C@@H]4CCC5=CC(=O)C=C[C@]5(C)[C@H]4[C@@H](O)C[C@]3(C)[C@]2(C(=O)CO)O1	74.9%	34.7%	89.1%	77%	72.8%	73.6%	66.3%	57.7%	60.3%	60.3%	53.6%	99.8%	39.1%	96.1%	95.7%	89.1%	83.2%	67.5%	61.8%	65.2%	58.4%	55.4%	79.7%	37.8%	82.4%	81.8%	80%	88.1%	68.4%	51.9%	53.9%	49.8%	53.4%
C[C@@H]\1CC(=O)N\N=C1C2=CC=C(NN=C(C#N)C#N)C=C2	88.9%	86.8%	101%	87.4%	98.4%	96.5%	55.4%	92.3%	106%	62.8%	4.93%	68.2%	92.4%	107%	92.6%	88.4%	102%	39.3%	90.9%	95.2%	35.3%	5%	73.5%	88.4%	91.4%	93.1%	95.2%	92.5%	72.8%	100%	107%	53.2%	6.27%
CCOC(=O)C/1=C(O)/C(=O)N(CC2=CC=CC=C2)C1	97.8%	98.5%	98%	91%	110%	108%	108%	120%	111%	106%	86.1%	99%	104%	94.4%	90.1%	111%	111%	99.4%	99.2%	98.3%	94.9%	83.9%	119%	113%	105%	125%	109%	111%	108%	125%	108%	106%	93.7%
Cc1cn([C@@H]2O[C@H](CO)[C@@H](O)[C@@H]2F)c(=O)[nH]c1=O	74.5%	103%	102%	101%	110%	104%	110%	116%	116%	104%	95%	101%	102%	103%	93.4%	122%	107%	108%	113%	117%	122%	119%	77%	111%	92.3%	109%	127%	122%	108%	105%	124%	93.5%	92.7%
CSCC[C@@H](NC(=O)[C@@H](Cc1ccccc1)NC(=O)CNC(=O)CNC(=O)[C@@H](N)Cc1ccc(O)cc1)C(=O)O	73.5%	44.7%	93%	22%	106%	103%	94.9%	102%	98.9%	91.6%	99.6%	72.6%	25.7%	80.9%	15.5%	103%	104%	90.5%	107%	96.6%	99.9%	120%	81.9%	38.3%	102%	20.9%	95.6%	103%	92.3%	99.7%	106%	103%	99.8%
